Patent publication US9238684B2, “SPANX-B polypeptides and their use” (The United States of America, as represented by the …, priority 2009, dated 2016)

What was measured:
[1] = test system: SPANX-B-specific CD8^+ T cell lines; assay: IFNγ secretion (ELISA) by CD8+ T cell lines stimulated with antigen-pulsed autologous DCs; assay type: cell-based, human; details: for IFNγ secretion by SPANX-B-specific CD8+ T cells on stimulation with pulsed DCs: irradiated autologous DCs, lines generated with SPANX-B protein, FIG. 5A
[2] = test system: UACC1273 melanoma cells; assay: CTL 6-hour 51Cr release assay on UACC1273; assay type: cell-based, human; details: SPANX-B-expressing, HLA-A2-positive target; FIGS. 6A-C
Method: (§1) CTL assay and HLA blocking experiments: Tumor cell lines (target cells, 2×10^6) were incubated in 200 μL of fetal bovine serum (FBS) with 200 μCi of Na2^51CrO4 (PerkinElmer, Billerica, Mass.) for 2 hours at 37° C. Cells were washed with RPMI three times and resuspended in cRPMI with 10% FBS at 1×10^5 cells/mL. CTL assay was performed in triplicate in 96-well round bottom plates with 1×10^4/well ^51Cr-labeled target cells. The target cells were co-cultured at indicated ratios with effector cells (peptide-specific CD8^+ T cells) for 6 hours. The specific ^51Cr-release is calculated using formula: ((test sample release−spontaneous release)/(maximum release−spontaneous release))×100). Maximum release is for the target cells alone lysed with 2% Triton X-100.

[3] = test system: HEK293 cells; assay: CTL 51Cr release assay on HEK293 cells pulsed with Pep-2; assay type: cell-based, human; details: FIGS. 6A-C; for lysis of HLA-A2-expressing HEK293 cells pulsed with Pep-2 by CD8+ T cell lines generated to the antigen: HEK-A2, pulsed with 1 μg/ml Pep-2; for lysis of HLA-A2-negative parental HEK293 cells by CD8+ T cell lines generated to the antigen: HEK
Method: as §1

[4] = test system: primary human melanoma cells; assay: CTL 51Cr release assay on primary human melanoma cells; assay type: cell-based; details: for lysis of HLA-A2-expressing primary melanoma tumors by CD8+ lines generated to the antigen: Tc526, Tc624 and Tc2492; for lysis of HLA-A2-negative primary melanoma tumors by CD8+ lines generated to the antigen: Tc2547 and Tc938, FIG. 6E
Method: as §1

[5] = test system: SPANX-B-specific CD4^+ T cell lines; assay: IFNγ secretion (ELISA) by CD4+ T cell lines stimulated with antigen-pulsed autologous DCs; assay type: cell-based, human; details: for IFNγ secretion by CD4+ T cell lines on stimulation with pulsed DCs: CD4+ T cell lines generated with SPANX-B protein-treated autologous DCs, FIGS. 3A-C; for IFNγ secretion by SPANX-B-specific CD4+ T cell lines, fine mapping of the epitope: autologous DCs pulsed with peptide, lines generated to SPANX-B protein, Pep-1 or Pep-G1, FIG. 3D; for IFNγ secretion by SPANX-B-specific CD4+ T cell line: irradiated mature DCs pulsed with 1 μg/ml peptide, FIG. 3A; for generation of SPANX-B-specific CD4+ T cell lines using the peptide: lines recognized DCs incubated with SPANX-B protein dose-dependently, FIGS. 3C, 3D
Method: T cell stimulation: To generate CD4^+ T cell lines, CD4^+ T cells (2×10^6) were stimulated with autologous DC pulsed with either SPANX-B protein (2 μg/mL), or with SPANX-B peptides (10 μg/mL) in the presence of IL-2 (20 U/mL) for seven days. T cells were re-stimulated once every week two times. To generate CD8^+ CTL lines, 2×10^6 CD8^+ T cells were stimulated with autologous DC pulsed with either SPANX-B protein (2 μg/mL) and SPANX-B peptides (10 μg/mL) in the presence of IL-2 (20 U/mL) and IL-15 (10 ng/mL) for seven days. T cells were weekly restimulated with peptide-loaded DCs for several times. To test antigen-specific activity of CD4^+ T cell lines, all experiments were performed in triplicates in 96-well plates with 1×10^5 CD4^+ T cells/well. […] T cell activity was judged by IFNγ secretion in culture supernatants by ELISA after 48 hours incubation (see below and Schiavo et al., Blood 107(12):4597-605, 2006). For most experiments, unless specified, 1:5 Target:Effector ratio was used.
Detection of IFNγ by ELISA: ELISA was performed as described elsewhere (Schiavo et al., Blood 107(12):4597-605, 2006). Briefly, 96-well flat-bottom plates were coated with 2 μg/mL of anti-human IFNγ antibody (BD pharmingen, San Jose, Calif.) to capture secreted IFNγ. The captured IFNγ was detected with 0.5 μg/mL biotin-conjugated mouse anti-human IFNγ antibody and streptavidin-HRP (BD pharmingen, San Jose, Calif.). The assay was visualized with TMB peroxidase solution B (KPL, Gaithersburg, Md.) and read at OD450.

[6] = test system: murine anti-SPANX-B antibody; assay: ELISA on peptide-coated plates with murine anti-SPANX-B antibody; assay type: binding; details: Ab from mice DNA immunized with SPANX-B-expressing plasmid; FIG. 1B
Method: FIGS. 1A-1F are digital images, a graph and a schematic diagram illustrating the specificity of antibody and expression of SPANX-B in human immortalized tumor cell lines. FIG. 1A is a digital image showing ANEA-I0117 antibody recognized SPANX-B expressed in mouse erythroleukemia RL5 cells. Western blotting results are shown with ANEA-I0117 anti-SPANX-B antibody on lysates of RL5 cells (2 μl, 5 μl and 10 μl, respectively) transiently transduced with plasmid expressing SPANX-B (SPANX-B). Control lysates were made from untransduced parental RL5 cells (Control). FIG. 1B is a graph showing murine anti-SPANX-B antibody, which was generated from mice DNA immunized with plasmid expressing SPANX-B, recognized unique SPANX-B-specific insert of SPANX-B (encoded in Pep-G1 and Pep-2 peptides), ELISA assay on plates coated with various peptides that are depicted in FIG. 1C. […] FIG. 1D is a digital image showing the expression of SPANX-B protein evaluated by Western blotting with ANEA-I0117 Ab (1:5000) in lysates of cell lines, such as HEK293 (HEK), Jurkat, CRL 7002, UACC1273, 938 Mel, CCRF-CEM (CEM), and normal human donor PBMC (upper panel). The blot was stripped and hybridized with anti-actin antibody (lower panel). FIGS. 1E and 1F are digital images obtained from an immunohistochemistry and immunofluorescent assay, respectively, of melanoma (UACC1273) and ovarian carcinoma (2008 and OVCAR3) cell lines. The cells were stained with ANEA-I0117 Ab (right and bottom panels in FIG. 1E and FIG. 1F, respectively); and control IgG (left and upper panels in FIG. 1E and FIG. 1F, respectively).
SPANX-B can be often found in the list of highly expressed genes in microarray study of human tumors, including hematological malignancies and breast cancer (see, for example, Minn et al., Nature 436(7050):518-24, 2005). To confirm this, expression was tested using two antibodies, a rabbit 3ANEA Ab and mouse SPANX-B Ab. […] The second SPANX-B Ab was produced from mice DNA immunized with SPANX-B-expressing plasmid. […] In contrast, it reacted with a second peptide Pep-2 that only represented unique for SPANX-B insert of Pep-G1 (FIGS. 1B and C).

[7] = test system: HLA-DR; assay: HLA blocking of Pep-9-induced CD4+ T cell activation; assay type: cell-based, human
Method: The MHC […] inhibition assays: HLA specific mAbs or control isotype matched IgG were preincubated with peptide-pulsed DCs at concentration of 10 μg/mL for one hour at 4° C. Cells were washed with PBS, irradiated at 4500 rad and mixed with T cells at indicated ratios. To block HLA class I expression, tumor cells lines were pretreated with 10 μg/mL of anti-HLA-A,B,C antibodies (BD Pharmingen, San Jose, Calif.) for one hour at 4° C. Cells were washed with PBS and labeled with ^51Cr as indicated above. IFNγ production was determined by ELISA after 48 hour incubation as described (Schiavo et al., Blood 107(12):4597-605, 2006).
Next, to characterize HLA specificity, the CD4^+ T cell lines were stimulated with autologous DCs pulsed with Pep-9 in the presence of antibody that blocked HLA-DR, or HLA-DQ, or HLA-DP molecules. The stimulation of the SPANX-B-specific CD4^+ T cells was not affected by the presence of control antibody or antibodies that block HLA-DQ, or HLA-DP, or anti-MHC class I (FIGS. 4 A-C).

[8] = test system: SPANX-B; assay: DNA immunization of mice, serum ELISA on peptide-coated plates; assay type: in vivo; details: plates coated with peptide 5 μg/ml; FIG. 7
Method: Mice were intradermally immunized twice with 25 μg plasmid DNA constructs including MIP-3α-SPANX-B. Sera were tested for SPANX-B antibodies by ELISA assay in 96-well plates coated with the indicated peptides (5 μg/ml). […] The other was near the N-terminus, encoded by Pep-G1 (SEQ ID NO: 14) and Pep-2 (SEQ ID NO: 2) and Pep-3 (SEQ ID NO: 3).

Molecule: LVVRYRRNV (Synthetic peptide Pep-4)
- recognition of SPANX-B protein-pretreated DCs by CD8+ T cells generated with peptide-pulsed DCs [1]: also recognized SPANX-B protein-pretreated DCs
- IFNγ secretion by SPANX-B-specific CD8+ T cells on stimulation with pulsed DCs [1]: secreted IFNγ
- lysis of UACC1273 melanoma cells by CD8+ T cell lines generated to the antigen [2]: killed UACC1273 melanoma cells
- lysis of HLA-A2-expressing HEK293 cells pulsed with Pep-2 by CD8+ T cell lines generated to the antigen [3]: lysed HLA-A2-expressing HEK293 cells that were pulsed with Pep-2
- lysis of HLA-A2-negative parental HEK293 cells by CD8+ T cell lines generated to the antigen [3]: did not kill
- lysis of HLA-A2-expressing primary melanoma tumors by CD8+ lines generated to the antigen [4]: recognized and lysed
- lysis of HLA-A2-negative primary melanoma tumors by CD8+ lines generated to the antigen [4]: not affected

Molecule: ALWFRNHFVFGGGTK (Synthetic peptide MOPC (9)) [control murine class II peptide, reference compound]
- IFNγ secretion by CD4+ T cell lines on stimulation with pulsed DCs [5]: failed to respond

Molecule: QPAPKKMKTSESSTILVVRYRRNV (Synthetic peptide Pep-6)
- IFNγ secretion by CD4+ T cell lines on stimulation with pulsed DCs [5]: failed to respond
- recognition of peptide by mouse SPANX-B Ab (ELISA) [6]: but not other region-specific peptides

Molecule: RSVPCESNEANE (Synthetic peptide Pep-9)
- IFNγ secretion by SPANX-B-specific CD4+ T cell lines, fine mapping of the epitope [5]: able to activate the SPANX-B-specific CD4^+ T cell lines
- HLA restriction of recognition by human CD4+ T cells [7]: HLA-DR-restricted fashion

Molecule: KRTSPEELVNDHARENRINPDQME (Synthetic peptide Pep-7)
- B cell epitope recognized by sera of immunized mice (ELISA) [8]: Immunodominant B cell epitopes

Molecule: ENRINPDQMEEEEFIEITTERPKK (Synthetic peptide Pep-8)
- B cell epitope recognized by sera of immunized mice (ELISA) [8]: Immunodominant B cell epitopes

Molecule: KRSVPCESNEANEANEANKTM (Synthetic peptide Pep-G1)
- IFNγ secretion by CD4+ T cell lines on stimulation with pulsed DCs [5]: activated the CD4^+ T cell lines to secrete IFNγ
- IFNγ secretion by SPANX-B-specific CD4+ T cell line [5]: can be also activated to secrete IFNγ
- generation of SPANX-B-specific CD4+ T cell lines using the peptide [5]: readily generated
- recognition of peptide by mouse SPANX-B Ab (ELISA) [6]: preferentially recognized
- B cell epitope recognized by sera of immunized mice (ELISA) [8]: Immunodominant B cell epitopes

Molecule: RSVPCESNEVNETMPETPTGDSDP (Synthetic peptide Pep-5)
- IFNγ secretion by CD4+ T cell lines on stimulation with pulsed DCs [5]: activated the CD4^+ T cell lines to secrete IFNγ
- IFNγ secretion by SPANX-B-specific CD4+ T cell line [5]: can be also activated to secrete IFNγ
- generation of SPANX-B-specific CD4+ T cell lines using the peptide [5]: readily generated
- recognition of peptide by mouse SPANX-B Ab (ELISA) [6]: failed to recognize

Molecule: ANEANEANKTMPETPTGDSDP (Synthetic peptide Pep-G2)
- IFNγ secretion by CD4+ T cell lines on stimulation with pulsed DCs [5]: failed to respond
- recognition of peptide by mouse SPANX-B Ab (ELISA) [6]: but not other region-specific peptides

Molecule: GQQSSVRRL (Synthetic peptide Pep-3)
- recognition of peptide by mouse SPANX-B Ab (ELISA) [6]: but not other region-specific peptides
- B cell epitope recognized by sera of immunized mice (ELISA) [8]: Immunodominant B cell epitopes

Molecule: RSAPCASAEVNE (Synthetic peptide Pep-9 Mod) [Pep-9-Mod, reference compound]
- IFNγ secretion by SPANX-B-specific CD4+ T cell lines, fine mapping of the epitope [5]: did not respond

B1: SPANX-B protein: Recombinant SPANX-B protein fused with maltose binding protein (MBP), produced and purified from E. coli (protein)
chain: MGQQSSVRRLKRSVPCESNEANEANEANKTMPETPTGDSDPQPAPKKMKTSESSTILVVRYRRNVKRTSPEELLNDHARENRINPDQMEEEEFIEITTERPKK
- IFNγ secretion by CD4+ T cell lines on stimulation with pulsed DCs [5]: specifically recognized SPANX-B-treated DCs
- SPANX-B-specific CD8+ T cell lines generated, donors ([1]; HLA-A2-positive peripheral blood CD8+ T cells, DCs incubated with SPANX-B protein): 3/3
- IFNγ secretion by SPANX-B-specific CD8+ T cells on stimulation with pulsed DCs [1]: secreted IFNγ
- lysis of UACC1273 melanoma cells by CD8+ T cell lines generated to the antigen [2]: killed UACC1273 melanoma cells
- lysis of HLA-A2-expressing HEK293 cells pulsed with Pep-2 by CD8+ T cell lines generated to the antigen [3]: lysed HLA-A2-expressing HEK293 cells that were pulsed with Pep-2
- lysis of HLA-A2-negative parental HEK293 cells by CD8+ T cell lines generated to the antigen [3]: did not kill
- lysis of HLA-A2-expressing primary melanoma tumors by CD8+ lines generated to the antigen [4]: recognized and lysed
- lysis of HLA-A2-negative primary melanoma tumors by CD8+ lines generated to the antigen [4]: not affected
